Some test systems named below: HCT-116; SK-OV-3; OVCAR-4; SK-MEL-5; SW-620; SR; M14; HOP-92; PC-3; SN12C; A498; NCI-H522; SF-539; BT-549; MDA-MB-231; UACC-62; SNB-75; Malme-3M; CAKI-1; UACC-257.
What all share (assay): NCI tumour cell line growth inhibition, 48 h

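These data come from cells grown in 96-well plates and exposed to compound for 48 hours at five concentrations. GI50 marks 50% less growth.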 The source made the active and inactive calls. Rule as the data show it: active = GI50 up to about 1.1 µM and inactive = higher.

For `O=C1Cc2c([nH]c3cc(Br)ccc23)-c2ccccc2N1`, the GI50 in the test with HCT-116 was 3.4 µM (inactive); in the test on SK-OV-3 it was 19.9 µM (inactive); with OVCAR-4, 10.3 µM (inactive); in the test on SK-MEL-5, 16 µM (inactive); in the test on SW-620, 6.81 µM (inactive); in the test with SR, 21.9 µM (inactive). Moreover, the GI50 with M14 is 18.5 µM (inactive); in the test on HOP-92 it was 31.1 µM (inactive); in the test on PC-3, 3.56 µM (inactive); in the test with SN12C it was 18.5 µM (inactive); with A498, 21.5 µM (inactive); in the test with NCI-H522, 15 µM (inactive). For the same compound, the GI50 with SF-539 is 16.2 µM (inactive); in the test on BT-549, 17.2 µM (inactive); in the test with MDA-MB-231, 22.8 µM (inactive); with UACC-62, 12.6 µM (inactive); with SNB-75 it was 23.8 µM (inactive); in the test on Malme-3M, 20.8 µM (inactive).
For the compound `O=S(=O)(O)c1ccc2cc(/N=N\c3cc(S(=O)(=O)O)c4cccnc4c3O)ccc2c1`, the GI50 with HCT-116, in the test on SK-OV-3, with OVCAR-4, in the test with SK-MEL-5, in the test on SW-620 and in the test with SR was > 100 µM (inactive) each time. In addition, the GI50 in the test on M14, with CAKI-1, in the test on HOP-92, in the test with UACC-257, with PC-3 and with A498 was > 100 µM (inactive) throughout. Moreover, the GI50 with NCI-H522, with SF-539, in the test on BT-549, in the test with MDA-MB-231, in the test with UACC-62 and in the test on SNB-75 was > 100 µM (inactive) throughout. For the same compound, the GI50 in the test with Malme-3M is > 100 µM (inactive).
On to `CC(NNC(=O)c1cc[n+]([BH2-]C#N)cc1)c1ccc(Cl)cc1Cl` (stereo not given), for which the GI50 was 22.5 µM (inactive) with HCT-116; 30.7 µM (inactive) with OVCAR-4; 23 µM (inactive) with SK-MEL-5; 42.8 µM (inactive) in the test on SW-620; 30.9 µM (inactive) with SR; 42.4 µM (inactive) in the test with M14. The GI50 in the test on CAKI-1 was 68.2 µM (inactive); with HOP-92, 37.4 µM (inactive); with UACC-257 it was 42.1 µM (inactive); in the test on PC-3, 33.6 µM (inactive); in the test with SN12C, > 100 µM (inactive); in the test with A498, > 100 µM (inactive). Besides, the GI50 in the test on NCI-H522 was 28.6 µM (inactive); in the test on SF-539 it was 53.7 µM (inactive); in the test on BT-549, 46.2 µM (inactive); with MDA-MB-231, 35 µM (inactive); in the test with UACC-62, 55.8 µM (inactive); with SNB-75, 31.8 µM (inactive). Besides, the GI50 with Malme-3M is 43.9 µM (inactive).
Consider `Cc1ccc2c(O)cc(-c3sccc3C)nc2n1`, for which the GI50 was 0.452 µM (active) in the test with HCT-116; 1.45 µM (inactive) in the test on SK-OV-3; 9.79 µM (inactive) in the test on OVCAR-4; 0.266 µM (active) in the test with SK-MEL-5; 0.264 µM (active) in the test with SW-620; 0.122 µM (active) in the test with SR. Also, the GI50 is 0.438 µM (active) in the test on M14; 0.792 µM (active) in the test with CAKI-1; > 36.8 µM (inactive) in the test with HOP-92; 0.426 µM (active) in the test on PC-3; 1.67 µM (inactive) in the test with SN12C; 0.562 µM (active) with A498. For the same compound, the GI50 in the test on NCI-H522 is 0.296 µM (active); in the test with SF-539, 0.474 µM (active); in the test with BT-549, 4.27 µM (inactive); with MDA-MB-231 it was 2.48 µM (inactive); in the test with UACC-62 it was 0.9 µM (active); with SNB-75, 0.726 µM (active). Also, in the test with Malme-3M, the GI50 is 0.463 µM (active).
Turning to `COc1cc(C(=O)C2CC3(CCC2(O)c2cc(OC)c(OC)c(OC)c2)CC(=O)Nc2ccccc2C3=O)cc(OC)c1OC` (stereo not given), the GI50 was 67.1 µM (inactive) with HCT-116; > 100 µM (inactive) in the test on SK-OV-3; 20.2 µM (inactive) in the test on OVCAR-4; 21.3 µM (inactive) in the test with SK-MEL-5; > 100 µM (inactive) with SW-620; 29.6 µM (inactive) in the test on SR. Besides, the GI50 in the test on M14 is 91.2 µM (inactive); in the test on CAKI-1 it was > 100 µM (inactive); with HOP-92, 40.4 µM (inactive); in the test with UACC-257 it was > 100 µM (inactive); with PC-3 it was 42.6 µM (inactive); in the test with SN12C, > 100 µM (inactive). The GI50 was > 100 µM (inactive) in the test with A498; > 100 µM (inactive) in the test with SF-539; > 100 µM (inactive) in the test on BT-549; > 100 µM (inactive) with MDA-MB-231; > 100 µM (inactive) in the test with UACC-62; 24.5 µM (inactive) in the test on SNB-75. Besides, in the test on Malme-3M, the GI50 is > 100 µM (inactive).
In the case of `CN1C(=O)[C@@H]2[C@@H]3c4ccccc4N(S(=O)(=O)C(F)(F)F)[C@@H]3c3[nH]c4ccccc4c3[C@@H]2C1=O`, the GI50 with HCT-116 was 17.2 µM (inactive); in the test on SK-OV-3, > 100 µM (inactive); in the test on OVCAR-4, 82.4 µM (inactive); in the test on SK-MEL-5 it was 36.4 µM (inactive); with SW-620 it was > 100 µM (inactive); in the test on SR it was 4.9 µM (inactive). Further, the GI50 in the test with CAKI-1 was > 100 µM (inactive); with HOP-92, 1.63 µM (inactive); with UACC-257, 62.5 µM (inactive); in the test with PC-3 it was 8.47 µM (inactive); in the test on SN12C, > 100 µM (inactive); with A498 it was > 100 µM (inactive). In addition, the GI50 with SF-539 is > 100 µM (inactive); in the test on BT-549, > 100 µM (inactive); in the test on MDA-MB-231, 13.2 µM (inactive); with UACC-62, > 100 µM (inactive); in the test with SNB-75 it was 13.2 µM (inactive).
With `CN(C)/N=N/c1ccc(NC=O)cc1`, the GI50 in the test with HCT-116 was > 100 µM (inactive); in the test with SK-OV-3 it was > 100 µM (inactive); in the test on OVCAR-4, > 100 µM (inactive); in the test on SK-MEL-5, > 100 µM (inactive); with SW-620, > 100 µM (inactive); with SR, 48.6 µM (inactive). In addition, the GI50 in the test with M14, in the test with CAKI-1, in the test with HOP-92, in the test with UACC-257, with PC-3 and in the test on SN12C was > 100 µM (inactive) in each case. Further, the GI50 was > 100 µM (inactive) with A498; > 100 µM (inactive) in the test with SF-539; > 100 µM (inactive) in the test on BT-549; > 100 µM (inactive) in the test with MDA-MB-231; 40.6 µM (inactive) with UACC-62; > 100 µM (inactive) in the test with SNB-75.
Turning to `CCOC(=O)c1sc2nc(SC)nc3c2c1NC(=O)CN3c1cccc(F)c1`, the GI50 with HCT-116 is 18.2 µM (inactive); in the test on SK-OV-3, 20 µM (inactive); in the test with OVCAR-4, 17.9 µM (inactive); in the test on SK-MEL-5, 0.855 µM (active); in the test with SW-620, 0.834 µM (active); in the test on SR it was 70 µM (inactive). Besides, the GI50 was 20.5 µM (inactive) in the test with M14; 44.3 µM (inactive) in the test with CAKI-1; 22.5 µM (inactive) in the test on HOP-92; 63.5 µM (inactive) in the test with UACC-257; 17.3 µM (inactive) in the test with PC-3; 17.2 µM (inactive) in the test on SN12C. Further, the GI50 was 18.2 µM (inactive) in the test with A498; 26.5 µM (inactive) in the test on NCI-H522; 0.735 µM (active) with SF-539; 7.29 µM (inactive) with BT-549; 16.1 µM (inactive) in the test with MDA-MB-231; 30.5 µM (inactive) in the test on UACC-62. In the test on Malme-3M, the GI50 was 30.3 µM (inactive).
`O=C(Cc1ccccc1)Nc1nc2ccc(Cl)cc2c2nc(-c3ccco3)nn12`: the GI50 is 14.8 µM (inactive) in the test on HCT-116; 39.6 µM (inactive) in the test with SK-OV-3; 89.5 µM (inactive) in the test on SK-MEL-5; > 100 µM (inactive) in the test with SW-620; 3.44 µM (inactive) in the test on SR; > 100 µM (inactive) with M14. The GI50 with CAKI-1 is > 100 µM (inactive); with HOP-92, 2.48 µM (inactive); in the test on UACC-257, > 100 µM (inactive); in the test with PC-3 it was > 100 µM (inactive); in the test with SN12C, > 100 µM (inactive); with A498 it was > 60.3 µM (inactive). The GI50 in the test with NCI-H522 was > 100 µM (inactive); in the test with SF-539, 7.69 µM (inactive); in the test with BT-549, > 100 µM (inactive); with MDA-MB-231 it was > 21.2 µM (inactive); with UACC-62 it was > 100 µM (inactive); in the test with SNB-75, 5.02 µM (inactive). The GI50 with Malme-3M is 53.7 µM (inactive).
As to `O=C1CC2(CCC(O)(c3cccc4ccccc34)C(C(=O)c3cccc4ccccc34)C2)C(=O)c2ccccc2N1` (stereo not given), the GI50 with HCT-116 is 23.6 µM (inactive); in the test on SK-OV-3 it was 46.3 µM (inactive); in the test on SK-MEL-5 it was 24.8 µM (inactive); in the test with SW-620, 24.2 µM (inactive); with SR, 14.2 µM (inactive); in the test with M14 it was 29.8 µM (inactive). Further, the GI50 is 25.9 µM (inactive) in the test with CAKI-1; 7.43 µM (inactive) with HOP-92; > 100 µM (inactive) with UACC-257; 91 µM (inactive) with PC-3; 72.8 µM (inactive) in the test with SN12C; > 100 µM (inactive) with A498. Also, the GI50 was 48 µM (inactive) in the test on SF-539; 46.7 µM (inactive) in the test on BT-549; 17.7 µM (inactive) in the test on MDA-MB-231; 81.5 µM (inactive) with UACC-62; 10.7 µM (inactive) with SNB-75; > 100 µM (inactive) with Malme-3M.
